A short description of data set [1]: Degree of degradation of dentin collagen in dentin mixed layers. Conditions: ranking among 32% phosphoric acid, EDTA and GCE. The method, then: FIG. 4B compares degree of degradation of dentin collagen in each group of the dentin mixed layers.
In this experiment, the inhibitory effect of GCE on soluble MMP-9 was evaluated using purified recombinant human MMP-9 (rhMMP-9) and a generic MMP assay kit (Sensolyte, AnaSpec Inc., Fremont, CA, USA). The MMP assay kit contains an intact thiopeptolide that is cleaved by specific MMPs to release a sulfhydryl group that produces colored 2-nitro-5-thiobenzoic acid with Ellman's reagent. A series of EDTA and GCE solutions (50 mg/mL, 25 mg/mL, 10 mg/mL, 5 mg/mL, 1 mg/mL) were used as test agents and 32% H3PO4 was used for comparison. […] Readings were taken after 60 min of incubation at 37° C. Absorbance was measured at 412 nm using a 96-well plate reader (VICTOR Nivo™, PerkinElmer). Background absorbance was determined from the “substrate control” wells and subtracted from the readings of the other wells containing the thiopeptolide substrate. The potency of rhMMP-9 inhibition by GM6001, the kit-included MMP inhibitor, and the […] concentrations of EDTA or GCE were expressed as percentages of the adjusted absorbance of the “positive control”. Inhibition of MMP (%) was calculated as 1−([A]test compound group−[A]test compound control)/([A]positive control−[A]substrate control), where [A] represents the absorbance values of the wells. […]

Data set [2] is described as follows: Rate of chelating Ca2+ from mineralized dentin, inductively coupled plasma-atomic emission spectrometry. Conditions: 0.1M EDTA vs EDTA cross-linked glycol chitosan at 50, 25 and 10 mg/ml.
Data set [3] has as its system human dental pulp stem cells (hDPSCs). The experiment in a line: Cytotoxicity test: mitochondrial dehydrogenase activity and intracellular DNA content. Format: cell-based. Conditions: hDPSCs exposed to 32% phosphoric acid, 0.1M EDTA or 25 mg/ml GCE; PBS control. From the text: FIG. 5A detects the mitochondrial dehydrogenase activity (Mito.) of human dental pulp stem cells (hDPSCs) that had been exposed to different dentin demineralizing agents.
FIG. 5B detects intracellular DNA content of human dental pulp stem cells that had been exposed to different dentin demineralizing agents.
FIG. 5A detects the mitochondrial dehydrogenase activity (Mito.) of human dental pulp stem cells (hDPSCs) that had been exposed to different dentin demineralizing agents. FIG. 5B detects intracellular DNA content of human dental pulp stem cells that had been exposed to different dentin demineralizing agents.

Data set [4] in a line: Transmission electron microscopy of mineralized dentin treated with demineralizing agents. Conditions: 0.1M EDTA for 60 seconds or 25 mg/ml glycol chitosan-EDTA for 30 seconds. The method, then:
For wet bonding, the conditioned specimen was kept moist by removing excess water from the dentin surface with lint-free tissues prior to bonding. For dry bonding, the conditioned dentin was air-dried with […] moisture-free air for 5 sec. The dentin bond strength was measured by the following methods. After treatment with various demineralizing agents and rinsing with deionized water, each tooth segment was bonded with Adper Single Bond 2 (3M ESPE; St Paul, MN, USA). After bonding, a 4-mm thick of resin composite (Z250, 3M ESPE) was placed over the adhesive-coated dentin surface using incremental light-curing. The bonded teeth with composite build-ups were stored in water for 24 hours at 37° C. Each specimen was subsequently sectioned to 0.9 mm×0.9 mm×7 mm long sticks, each with the resin-dentin interface in the middle of the stick. Each stick was attached with cyanoacrylate glue (Zapit; Dental Ventures of America, Corona, CA, USA) to a testing jig and stressed to failure under tension in a universal testing machine (Vitrodyne V1000; Liveco Inc., Burlington, VT, USA) at a cross-head speed of 1 mm/min. The tensile load at failure was recorded and divided by the measured cross-sectioned area of each beam to yield the tensile bond strength. The mean bond strength value derived from the 4 beams of each tooth was used to represent the tensile bond strength of that particular tooth. […]

Each structure is given as a SMILES string.

`O=C(O)CN(CCN(CC(=O)O)CC(=O)O)CC(=O)O` [EDTA, ethylenediaminetetraacetic acid]: the “degradation rate of collagen” value in data set [1] is on record as “followed by EDTA”. Moreover, the “demineralization effect (rate of chelating Ca2+)” value in data set [2] is on record as “strongest demineralization effect”. For the same compound, in data set [3], the cell viability result is given as “followed by the EDTA group”. The “extent of dentin demineralization in TEM image” value in data set [4] was “complete demineralization in a part of area and partial demineralization in some areas”.

On to `O=P(O)(O)O` [phosphoric acid], for which the “degradation rate of collagen” value in data set [1] is “highest”. In addition, the cell viability result in data set [3] is reported as “lowest”.

Values taken from patent publication US11980681B2, “Material for demineralizing dentin collagen fibril, preparation method and application thereof” (THE FOURTH MILITARY MEDICAL UNIVERSITY OF CHINESE PEOPLE'S …, priority 2019, dated 2024).
